Source: US10259809B2, “Fluorinated imidazo[4,5-C]quinoline derivatives as inhibitors of bromodomain containing proteins” (Trillium Therapeutics Inc., priority 2015, dated 2019)

Experiments:
AML2 = test: Oncology cell growth assay, AML2; type: cell-based, human; conditions: AML2, AML (acute myeloid leukemia), gIC50, 72 hours
Protocol: (§1) Human cell lines were cultured in RPMI-1640 containing 10% fetal bovine serum, 1000 viable cells per well were plated in 384-well black flat bottom polystyrene plates (Greiner #781086) in 48 ˜I of culture media. All plates were placed at 5% CO2, 37° C. overnight. The following day one plate was harvested with CeliTiter-Glo (CTG, Promega #G7573) for a time equal to 0 (TO) measurement and compound (20 point titration from 14.7 uM to 7 pM) was added to the remaining plates. The final concentration of DMSO in all wells was 0.15%. Cells were incubated for 72 hours or the indicated time and each plate was developed with CeliTiterGlo reagent using a volume equivalent to the cell culture volume in the wells. Plates were shaken for approximately 2 minutes and chemiluminescent signal was read on the Analyst GT (Molecular Devices) or EnVision Plate Reader (Perkin Elmer).
(§2) Results are expressed as a percent of the TO and plotted against the compound concentration. The TO value was normalized to 100% and represents the number of cells at time of compound addition and the concentration response data were fit with a 4 parameter curve fit using XLfit software (model 205). […] The Ymin-TO value was determined by subtracting the TO value (100%) from the Ymin value (%) determined from the fit of the concentration response curve. […]

HL60 = test: Oncology cell growth assay, HL60; type: cell-based, human; conditions: HL60, Promyelocytic leukemia, gIC50, 72 hours
Protocol: as §1, §2

TEX = test: Oncology cell growth assay, TEX; type: cell-based, human; conditions: AML (acute myeloid leukemia), gIC50, 72 hours
Protocol: as §1, §2

MV4-11 = test: Oncology cell growth assay, MV4-11; type: cell-based, human; conditions: MV4-11, AML (acute myeloid) leukemia, gIC50, 72 hours
Protocol: as §1, §2

MOLT4 = test: Oncology cell growth assay, MOLT4; type: cell-based, human; conditions: MOLT4, acute lymphoid leukemia; gIC50, 72 hours
Protocol: as §1, §2

RPMI-8226 = test: Oncology cell growth assay, RPMI-8226; type: cell-based, human; conditions: RPMI-8226, Multiple myeloma, gIC50, 72 hours
Protocol: as §1, §2

MM.1S = test: Oncology cell growth assay, MM.1S; type: cell-based, human; conditions: Multiple myeloma, gIC50, 72 hours
Protocol: as §1, §2

SK-OV-3 = test: Oncology cell growth assay, SK-OV-3; type: cell-based, human; conditions: SK-OV-3, Ovarian cancer, gIC50, 72 hours
Protocol: as §1, §2

[1] = system: MV4-11 human AML xenograft; test: MV4-11 subcutaneous human AML xenograft model, efficacy; type: in vivo, NOD SCID mice; conditions: PO
Protocol: • Species & Strain: NOD SCID mice • Age: 7-8 week • Total Number: 60 mice plus 40% spare • Sex: Female • Body Weight: 18 to 22 g Animal Maintenance
Groups and treatments started when the mean tumor volume reached 138 mm^3. Based on the tumor volume, mice were randomly assigned to respective groups using a computer-generated randomization procedure.
Each mouse was inoculated subcutaneously on the right flank with MV4-11 tumor cells ([…]) in 0.1 ml of IMDM without serum for tumor development. The treatment started when the mean tumor size reached approximately 138 mm^3. Mice were randomized into groups.
During the course of study, the tumor size was measured twice a week in two dimensions using a caliper, and the volume was expressed in mm^3 using the formula: TV=a×b2/2 where a and b were the long and short diameters of the tumor, respectively. The tumor size was then used for T/C and TGI (tumor growth inhibition) values, which were indicators of anti-tumor effectiveness. T/C was calculated with the formula [(Td−T0)/(Cd−C0)]×100%, TGI is calculated with the formula [1−(Td−T0)/(Cd−C0)]×100%. Td and Cd were the mean tumor volumes (or median tumor volumes) of the treated and control animals, and T0 and C0 were the mean tumor volumes of the treated and control animals at the start of the experiment.

[2] = MV4-11 xenograft model, tolerance (body weight, clinical signs); type: in vivo
Protocol: For routine monitoring, all study animals were monitored not only tumor growth but also behavior such as mobility, food and water consumption (by cage side checking only), body weight (BW), eye/hair matting and any other abnormal effect. Any mortality and/or abnormal clinical signs would be recorded.
Body weights of all animals were measured twice weekly throughout the study.

GBM cell = conditions: in vitro and in vivo; cited from earlier work
BRD2-1: Domain 1 of BRD2 = target: T1, BRD2-1: Domain 1 of BRD2 (Homo sapiens, UniProt P25440); test: Bromodomain binding assay (Example 6), BRD2-1
T1 construct: BRD2-1: Domain 1 of BRD2
T1 sequence (P25440 74-180 limits assumed): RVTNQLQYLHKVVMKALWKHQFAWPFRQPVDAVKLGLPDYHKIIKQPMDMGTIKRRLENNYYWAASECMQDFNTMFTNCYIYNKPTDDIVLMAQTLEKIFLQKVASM
Protocol: (§3) The binding of the compounds of the application to bromodomains BRD2, BRD3 and BRD4 was assessed using a time resolved fluorescent resonance energy transfer binding assay (Alpha Screen Technology), that measures the binding of an acetylated histone peptide to the bromodomain protein.
(§4) The bromodomain protein, histone peptide and a variable concentration of test compound were incubated together to reach thermodynamic equilibrium.

BRD3-1: Domain 1 of BRD3 = target: T2, BRD3-1: Domain 1 of BRD3 (Homo sapiens, UniProt Q15059); test: Bromodomain binding assay (Example 6), BRD3-1
T2 construct: BRD3-1: Domain 1 of BRD3
T2 sequence (Q15059 34-140 limits assumed): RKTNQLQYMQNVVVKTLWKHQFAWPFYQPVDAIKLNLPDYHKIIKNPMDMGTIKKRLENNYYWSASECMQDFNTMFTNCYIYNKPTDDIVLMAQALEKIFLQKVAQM
Protocol: as §3, §4

[3] = target: T3, BRD4-FL: Full length BRD4 (Homo sapiens, UniProt O60885); test: Bromodomain binding assay (Example 6), BRD4-FL
T3 construct: BRD4-FL: Full length BRD4
Protocol: as §3, §4

BRD2-1 = target: T4, BRD2-1 (Homo sapiens, UniProt P25440); test: BET Bromodomain AlphaScreen assay (Example 9), BRD2-1; type: binding
T4 construct: BRD2-1: Domain 1 of BRD2
T4 sequence (P25440 74-180 limits assumed): as the sequence (P25440 74-180 limits assumed) above
Protocol: (§5) The reader assay was a binding assay using the AlphaScreen technology fluorescence energy resonance transfer (FRET) assay. The biotinylated peptide binding to the reader domain of His-tagged protein is monitored by the singlet oxygen transfer from the Streptavidin-coated donor beads to the AlphaScreen Ni-chelate acceptor beads.
(§6) Reaction buffer: 50 mM Hepes, pH7.5, 100 mM NaCl, 0.05% CHAPS, 0.1% BSA, and 1% DMSO (Buffer and DMSO concentration may be different for different reader).
(§7) Biotin-peptide; sequences were different for different targets.
(§8) Reaction Procedure: • 1. Deliver 4× BRD in wells of reaction plate except No BRD control wells. Add buffer instead. • 2. Deliver compounds in 100% DMSO into the BRD mixture by Acoustic technology (Echo550; nanoliter range). Spin down and pre-incubation for 30 min. • 3. Deliver 4× Ligand. Spin and shake. • 4. Incubate for 30 min at room temperature with gentle shaking. • 5. Deliver 4× donor beads. Spin and shake. • 6. Deliver 4× acceptor beads. Spin and shake. Then gentle shaking in the dark for 60 min. • 7.

BRD3-1 = target: T5, BRD3-1 (Homo sapiens, UniProt Q15059); test: BET Bromodomain AlphaScreen assay (Example 9), BRD3-1; type: binding
T5 construct: BRD3-1: Domain 1 of BRD3
T5 sequence (Q15059 34-140 limits assumed): as the sequence (Q15059 34-140 limits assumed) above
Protocol: as §5, §6, §7, §8

BRD4-FL = target: T6, BRD4-FL (Homo sapiens, UniProt O60885); test: BET Bromodomain AlphaScreen assay (Example 9), BRD4-FL; type: binding
T6 construct: BRD4-FL: Full length BRD4
Protocol: as §5, §6, §7, §8

[4] = Liver microsome stability, mouse; type: in vitro ADME, mouse (CD-1; conditions: male, CD-1, mouse, pooled mouse liver microsomes, 1 μM compound, 0.5 mg/ml microsomes, 37° C., read-out: % recovery Mouse Liver Microsomes (MLM) (30 min)
Protocol: (§9) Working stocks were initially diluted to a concentration of 40.0 μM in 0.1 M potassium phosphate buffer before addition to the reaction vials. Pooled mouse (CD-1, male) or human (50 donors) liver microsomes were utilized at a final concentration of 0.5 mg/ml. Duplicate wells were used for each time point (0 and 30 minutes). Reactions were carried out at 37° C. in a shaker, and the final concentration of DMSO was kept constant at 0.01%. The final volume for each reaction was 100 μL, which includes the addition of an NADPH-Regeneration solution (NRS) mix. This NRS mix was comprised of glucose 6-phosphate dehydrogenase (0.4 U/mL), NADP+ (1.3 mM), MgCl2 (3.3 mM), and glucose 6-phosphate (3.3 mM) in assay mixtures. Upon completion of the 30 minute time point, reactions were terminated by the addition of 1.5-volumes (150 μL) of ice-cold, acetonitrile with 0.5% formic acid and internal standard. Samples were then centrifuged at 4,000 rpm for 10 minutes to remove debris and precipitated protein. Approximately 150 μL of supernatant was subsequently transferred to a new 96 well microplate for LC/MS analysis.
(§10) Narrow-window mass extraction LC/MS analysis was performed for all samples using a Waters Xevo quadrupole time-of-flight (QTof) mass spectrometer and an ACQUITY UPLC system, to determine relative peak areas of parent compound.

[5] = Liver microsome stability, human; type: in vitro ADME; conditions: pooled human liver microsomes (50 donors), 1 μM compound, 0.5 mg/ml microsomes, 37° C., read-out: % recovery Human Liver Microsomes (HLM) (30 min)
Protocol: as §9, §10

ABC DLBCL = conditions: combination with drugs targeting B-cell receptor signaling; cited from earlier work
[6] = system: prostate cancer cell lines with activated AR signaling; conditions: cited from earlier work
AR target genes = conditions: AR-positive cells; cited from earlier work

COc1cc2c(cc1-c1c(C)noc1C)ncc1nc(C3CCOCC3)n([C@H](C)COC(F)F)c12.Cl [2(g)·HCl]
IC50 (AML2): 18 ± 2 nM | IC50 (HL60): 51 ± 3 nM | IC50 (TEX): 23 ± 2 nM | IC50 (MV4-11): 14 ± 7 nM | IC50 (MOLT4): 1140 nM | IC50 (RPMI-8226): 303 ± 6 nM | IC50 (MM.1S): 17 ± 4 nM | IC50 (SK-OV-3): 2180 ± 1440 nM | antitumor activity ([1]; 30 mg/kg and 50 mg/kg): significant antitumor activity | antitumor activity ([1]; low-dose 10 mg/kg, QD × 14): moderate antitumor activity | body weight loss ([2]; 50 mg/kg PO, during the dosing period): 9.1% | body weight after dose suspension ([2]; 50 mg/kg, after a two days dose suspension on Day 8 and 9): maintained or recovered

COc1cc2c(cc1-c1c(C)noc1C)ncc1[nH]c(=O)n([C@H](C)c3ccccn3)c12 [I-BET151]
GBM cell proliferation (GBM cell): reduced GBM cell proliferation in vitro and in vivo

COc1cc2c(cc1-c1c(C)noc1C)ncc1nc(C3CC3)n([C@H](C)COC(F)F)c12.Cl [2(l), 4-[2-cyclopropyl-1-[(1R)-2-(difluoromethoxy)-1-methyl-ethyl]-8-methoxy-imidazo[4,5-c]quinolin-7-yl]-3,5-dimethyl-isoxazole hydrochloride]
IC50 (BRD2-1: Domain 1 of BRD2): 42 nM | IC50 (BRD3-1: Domain 1 of BRD3): 21 nM | IC50 [3]: 33 nM | EC50 (BRD2-1): 42.2 nM | EC50 (BRD3-1): 20.7 nM | EC50 (BRD4-FL): 33.1 nM | recovery at 30 min, 1 μM [4]: 3% | recovery at 30 min, 1 μM [5]: 43.6% | IC50 (AML2; Homo sapiens): 15 ± 1 nM | IC50 (HL60; Homo sapiens, HL-60): 179 ± 10 nM | IC50 (TEX; Homo sapiens): 52 ± 73 nM | IC50 (MV4-11; Homo sapiens): 156 ± 43 nM | IC50 (RPMI-8226; Homo sapiens): 109 ± 32 nM | IC50 (MM.1S; Homo sapiens, MM1.S): 94 ± 14 nM | IC50 (SK-OV-3; Homo sapiens): 360 ± 10 nM | antitumor activity ([1]; 30 mg/kg and 50 mg/kg): significant antitumor activity | tolerance ([2]; all dose levels (30 and 50 mg/kg PO)): tolerated well

Cc1sc2c(c1C)C(c1ccc(Cl)cc1)=N[C@@H](CC(=O)OC(C)(C)C)c1nnc(C)n1-2 [JQ-1]
drug-drug synergy (ABC DLBCL): combined favorably with multiple drugs targeting B-cell receptor signaling | apoptosis and cell cycle arrest [6]: sensitive to JQ1-induced apoptosis and cell cycle arrest | levels of transcription of AR target genes (AR target genes): globally reduced the levels of transcription of AR target genes
